The values below are quoted from earlier work in patent US20210121528A1, “COMPOSITIONS FOR TREATING LUNG INFECTIONS BY AIRWAY ADMINISTRATION” (priority 2014, published 2021).

Like-named read-outs stand apart in the source and are kept apart here.

Assay in data set [1]: not given
This is another data set of the same source.

Assay in data set [2]: not given
This is another data set of the same source.

Data set [3] deals with lethal pneumococcal pneumonia. The note with it: local delivery, mice.
For another data set, the system named is macrophages. The note with it: in vitro incubation.
Data set [4] concerns strains of organisms from the susceptible genera.
The subject of data set [5] is Staphylococcus, Streptococcus, Neisseria, Escherichia, Proteus (indole-negative), Serratia, Salmonella, Shigella, Pseudomonas, Haemophilus, Vibrio, and …. The note with it: aerobic genera.
The subject of data set [6] is Moraxella catarrhalis, Burkholderia cepacia, Mycobacterium spp. and Stenotrophomonas maltophilia.
For data set [7], the system named is Veillonella and Fusobacterium. The note with it: anaerobic genera.
Another data set has as its system Prevotella. The note with it: anaerobic genus.
The test system of data set [8] is methicillin-resistant Staphylococcus aureus and extended spectrum 13-lactamase (ESBL) enterobacteria. Particulars: resistant bacteria.
The conditions of data set [9]: human, in vivo.
In data set [10] the test system is mammalian cells and organs.
Data set [11] concerns polymorphonuclear leukocytes.
The conditions of data set [12]: in vivo, po.

In the case of `C[C@@H]1O[C@@H]1P(=O)(O)O` [Fosfomycin disodium], the “pH of 5% solution” value is on record as 9.0-10.5. For the same molecule, the solubility in water entry in data set [1] was “highly soluble”. Besides, the “irritation of the stomach / oral tolerability” value in data set [2] (in vivo, po) is recorded as “irritant to the stomach”.
Turning to “GM-CSF: Monomeric protein of 127 amino-acid residues, colony-stimulating factor; SEQ ID NO: 2 mature human form”, in [3], the “protection from lethal pneumococcal pneumonia” value was “protects”. For the same molecule, the “time for transformation of a resting macrophage into a fully immunocompetent dendritic cell” value in the data set with macrophages was “approximately 10 days”.
For the molecule `C[C@@H]1O[C@@H]1P(=O)(O)O` [fosfomycin, [(2R,3S)-3-methyloxiran-2-yl]phosphonic acid], in data set [4] (early studies, various antibiotic combinations), the “synergistic effect, share of tested strains” value is 70-100%. Also, the synergy rates in [4] (subsequent more extensive studies) is listed as 36-74%. In addition, the bactericidal activity result in data set [5] was “active”; in data set [6], “less active”; in [7], “active”; with Prevotella it was “moderately active”; in [8], “active”. Moreover, in data set [9], the eosinophilia was 0.2%. Moreover, the transient rashes in data set [9] is given as 0.3 % of cases. Moreover, the “transiently raised liver enzymes” value in data set [9] is 0.3 % of cases. The “toxicity to mammalian cells and organs” value in data set [10] is “remarkably non-toxic”. Moreover, the “concentration in polymorphonuclear leukocytes relative to the extracellular fluid” value in [11] is reported as “twice”.
For `C[C@@H]1O[C@@H]1P(=O)(O)O.NC(CO)(CO)CO` [Fosfomycin trometamol], the “pH of 5% solution” value was 3.5-5.5. Besides, in [1], the solubility in water entry is recorded as “highly soluble”. In addition, the bioavailability entry in [12] is listed as “about 40%”. Moreover, the “irritation of the stomach / oral tolerability” value in data set [2] (oral) is “well tolerated”.
`C[C@@H]1O[C@@H]1P(=O)(O)O` [Fosfomycin calcium monohydrate]: the “pH of 0.4% solution” value (0.4% solution) is reported as 8.1-9.6. The solubility in water entry in data set [1] is “sparingly soluble”. Besides, in [2] (in vivo, po), the “irritation of the stomach / oral tolerability” value is recorded as “less irritating to the stomach”.
